Consider 3 compounds from publication PMC5382548 (Scientific Reports, 2015).

For one assay, the system named is KRAS32R G4. The assay can be described thus: FRET melting assay, KRAS32R G4. The following applies: G4 0.2 μM, ligand 1 μM. The class given is binding, human. The procedure: (§1) Two compounds 2d and 3e were selected and evaluated for their ability to stabilize the 32-mer sequence in the NHE of the human KRAS promoter (KRAS32R)[12], two G4 motifs in the 5′UTR of KRAS mRNA (UTR-1 and UTR-2)[24] and a 21-mer DNA G4 from the human telomeric sequence (F21T). The KRAS32R sequence has been described as forming two G4 structures which exist in equilibrium. One sequence folds into a G4 (Q1) with a Tm of ~55°C that is disrupted on increasing the temperature and then, the full-length 32-mer sequence folds into a new G4 (Q2, Tm of ~72°C)[13]. In our assay, the KRAS32R sequence (in the presence or absence of IQcs) folded in a single G4 structure (Tm ≈ 54°C), as shown by the single inflection for the first derivative of the FRET melting data (Sup. Inf.; Figure S4). This monophasic behaviour was also observed in the presence of TMPyP4[13].
(§2) Oligonucleotide sequences were purchased from Eurofins MWG Synthesis GmbH, Germany or STAB VIDA Genomics Lab, Caparica, Lisbon, Portugal. […]
(§3) The ability of indolo[3,2-c]quinolines to stabilize DNA sequences was investigated using a Fluorescence Resonance Energy Transfer (FRET) assay as reported elsewhere.

Assay [1] concerns UTR-1 G4 in the 5′UTR of KRAS mRNA. The assay can be described thus: FRET melting assay, UTR-1 RNA G4. It counts as binding. The following applies: G4 0.2 μM, ligand 1 μM. The procedure:
as §1, §2, §3

Assay [2] concerns UTR-2 G4 in the 5′UTR of KRAS mRNA. The assay can be described thus: FRET melting assay, UTR-2 RNA G4. It counts as binding. The following applies: G4 0.2 μM, ligand 1 μM. As to the method:
as §1, §2, §3

Assay [3] relates to KRAS32R (DNA, G4) AGGGCGGTGTGGGAAGAGGGAAGAGGGGGAGG
The assay can be described thus: FRET melting. As to conditions: 60 mM K+; K-cacodylate pH 7.4; 0.2 μM DNA, 1 μM compound; SD ≤ 0.2.

Assay [4] deals with UTR-1 (RNA, G4) GCGGCGGCGGAGG
The assay can be described thus: FRET melting. The following applies: 60 mM K+; K-cacodylate pH 7.4; 0.2 μM RNA, 1 μM compound; SD ≤ 0.2.

Assay [5] concerns UTR-2 (RNA, G4) UGUGGGAGGGGCGGGUCUGGG
The assay can be described thus: FRET melting. The following applies: 60 mM K+; K-cacodylate pH 7.4; 0.2 μM RNA, 1 μM compound; SD ≤ 0.2.

Assay [6] relates to 26ds (ds26) (DNA, duplex) CAATCGGATCGAATTCGATCCGATTG
The assay can be described thus: spectrofluorimetric titration, one-site Hill slope fit. As to conditions: 60 mM K+, K-cacodylate pH 7.4, 25 °C, 1 μM compound, apparent, SD ≤ 0.2 × 10^6.

The test system of another assay is MiaPaCa2 (pancreatic). The assay can be described thus: SRB short-term cytotoxicity assay, MiaPaCa2. It counts as cell-based. As to conditions: Homo sapiens, MIA PaCa-2, 96 h. As to the method:
Short-term anti-proliferative assays were carried out by two different assays using a panel of human cancer and non-malignant human cell lines. […] The transformed human embryonic kidney cell line HEK293T (wt KRAS) was sensitive to all tested drugs, including TMPyP4, a cationic porphyrin established as a G4 ligand, as well as the anticancer drug 5-fluorouracil (5-FU).
Human cell lines, breast carcinoma (MCF7), lung carcinoma (A549), pancreatic cancer (MIA PaCa2, Panc-1), immortalised telomerase-negative human lung fibroblast (ALT) and normal human lung fibroblast (WI-38), were all purchased from American Type Cell Culture (ATCC). Cell lines were maintained in appropriate medium supplemented with 10% fetal bovine serum (Invitrogen, UK), 2 mM L-glutamine (Invitrogen, Netherlands), and other components as specified by the suppliers. All cell lines were maintained at 37°C, 5% CO2, and routinely passaged. Short-term growth inhibition was measured using the SRB assay as described previously[43] […]
After electrophoretic transfer onto nitrocellulose membranes, immunoblots were blocked with 5% milk solution, and next incubated overnight at 4 °C with primary mouse monoclonal antibody reactive to KRAS/p53 (#sc-30/sc-126; Santa Cruz Biotechnology Inc., Santa Cruz, CA, USA). […] Steady-state protein levels were expressed as mean ±SEM from at least three independent experiments.

The test system of assay [7] is KRAS21R (FRET-labelled) (DNA, G4) AGGGCGGTGTGGGAAGAGGGA
The assay can be described thus: FRET melting. The following applies: 60 mM K+; K-cacodylate pH 7.4; 0.2 μM DNA, 1 μM compound; SD ≤ 0.2.

Take `CCN(CC)CCCNc1ccc2c(c1)c1[nH]c3ccccc3c1c[n+]2C` [2d]: the “ΔTm KRAS32R” value in the assay on KRAS32R G4 was 10.7 °C. Further, the “ΔTm UTR-1” value in [1] is 5.1 °C. For the same compound, the “ΔTm UTR-2” value in assay [2] was found to be 2.0 °C. Also, the ΔTm (commonly the shift of the melting midpoint relative to a reference) amounted to 10.7 °C in assay [3], 5.1 °C in assay [4] and 2.0 °C in [5]. The Ka in assay [6] (Hill 1.5) came out at 2.8e+06 M⁻¹.

As to `Cn1cc2c3ccccc3nc-2c2cc(Br)ccc21` [2a, 2-bromo-5-methyl-indolo[3,2-c]quinoline], in the assay on MiaPaCa2 (pancreatic), half-maximal inhibition (IC50) was put at 2200 nM. Moreover, the binding entry in assay [7] is on record as “weak”.

As for `CCN(CC)CCCNc1ccc2c(c1)[nH]c1c2c[n+](C)c2ccc(NCCCN(CC)CC)cc12.[Cl-]` [3e], the “ΔTm KRAS32R” value in the assay with KRAS32R G4 amounted to 17.0 °C. Besides, the “ΔTm UTR-1” value in assay [1] was 15.7 °C. Also, the “ΔTm UTR-2” value in assay [2] is 9.9 °C. In addition, the IC50 (in general, the point on the concentration scale where inhibition reaches its midpoint) with MiaPaCa2 (pancreatic) was determined as 1980 nM. The ΔTm in assay [3] was 17.0 °C; in [4] it was 15.7 °C; in assay [5], 9.9 °C. Moreover, the binding result in assay [7] was “yes”. Besides, the Ka in assay [6] (Hill 2.5) was determined as 3.2e+06 M⁻¹.
